Measurements published in patent US12441722B2, “Therapeutic agents and methods of treatment” (University of Florida Research Foundation, Incorporated, priority 2020, dated 2025).

tested on: MOLT-4; assay: Cell viability assay (tetrazolium-based MTS) in MOLT4 cells; details: MOLT4 acute lymphoblastic leukemia cells, 48 h incubation
Procedure: Cancer cells from acute lymphoblastic leukemia (MOLT4) were incubated with increasing concentrations of compounds of Examples 1-9 for 48 h. Cell viability was measured by tetrazolium-based MTS assay. 5×10^4 to 1×10^5 suspension cells or 3×10^3 to 5×10^3 adherent cells were seeded and treated in 96-well plates for 48 h. The EC50 values of individual agents were calculated with GraphPad Prism.

Row | EC50 | SMILES
1 | < 10 nM | Cc1c(-c2ccc(N3CCc4cccc(C(=O)Nc5nc6ccccc6s5)c4C3)nc2C(=O)NCCOCCOCCOCCCc2cccc3c2C(=O)N(C2CCC(=O)NC2=O)C3=O)cnn1CC12CC3CC(CC(C3)C1)C2 (stereo not shown) [degrader #30, 2-(5-(1-(adamantan-1-ylmethyl)-5-methyl-1H-pyrazol-4-yl)-6-((2-(2-(2-(3-(2-(2,6-dioxopiperidin-3-yl)-1,3-dioxoisoindolin-4-yl)propoxy)ethoxy)ethoxy)ethyl)carbamoyl)pyridin-2-yl)-N-(benzo[d]thiazol-2-yl)-1,2,3,4-tetrahydroisociuinoline-8-carboxamide]
2 | < 10 nM | Cc1c(-c2ccc(N3CCc4cccc(C(=O)Nc5nc6ccccc6s5)c4C3)nc2C(=O)NCCOCCOCCOCCCc2ccc3c(c2)C(=O)N(C2CCC(=O)NC2=O)C3=O)cnn1CC12CC3CC(CC(C3)C1)C2 (stereo not shown) [degrader #31, 2-(5-(1-(adamantan-1-ylmethyl)-5-methyl-1H-pyrazol-4-yl)-6-((2-(2-(2-(3-(2-(2,6-dioxopiperidin-3-yl)-1,3-dioxoisoindolin-5-yl)propoxy)ethoxy)ethoxy)ethyl)carbamoyl)pyridin-2-yl)-N-(benzo[d]thiazol-2-yl)-1,2,3,4-tetrahydroisociuinoline-8-carboxamide]

Second part, the molecule before the results:

Row | SMILES | EC50
3 | Cc1c(-c2ccc(N3CCc4cccc(C(=O)Nc5nc6ccccc6s5)c4C3)nc2C(=O)NCCOCCOCCOCC#Cc2ccc3c(c2)CN(C2CCC(=O)NC2=O)C3=O)cnn1CC12CC3CC(CC(C3)C1)C2 (stereo not shown) [degrader #29, 2-(5-(1-(adamantan-1-ylmethyl)-5-methyl-1H-pyrazol-4-yl)-6-((2-(2-(2-((3-(2-(2,6-dioxopiperidin-3-yl)-1-oxoisoindolin-5-yl)prop-2-yn-1-yl)oxy)ethoxy)ethoxy)ethyl)carbamoyl)pyridin-2-yl)-N-(benzo[d]thiazol-2-yl)-1,2,3,4-tetrahydroisoguinoline-8-carboxamide] | < 10 nM
4 | Cc1c(-c2ccc(N3CCc4cccc(C(=O)Nc5nc6ccccc6s5)c4C3)nc2C(=O)NCCOCCOCCOCCCc2cccc3c2CN(C2CCC(=O)NC2=O)C3=O)cnn1CC12CC3CC(CC(C3)C1)C2 (stereo not shown) [degrader #32] | < 10 nM
5 | Cc1c(-c2ccc(N3CCc4cccc(C(=O)Nc5nc6ccccc6s5)c4C3)nc2C(=O)NCCOCCOCCOCCCc2ccc3c(c2)CN(C2CCC(=O)NC2=O)C3=O)cnn1CC12CC3CC(CC(C3)C1)C2 (stereo not shown) [degrader #33, 2-(5-(1-(adamantan-1-ylmethyl)-5-methyl-1H-pyrazol-4-yl)-6-((2-(2-(2-(3-(2-(2,6-dioxopiperidin-3-yl)-1-oxoisoindolin-5-yl)propoxy)ethoxy)ethoxy)ethyl)carbamoyl)pyridin-2-yl)-N-(benzo[d]thiazol-2-yl) 1,2,3,4-tetrahydroisociuinoline-8-carboxamide] | < 10 nM
6 | Cc1c(-c2ccc(N3CCc4cccc(C(=O)Nc5nc6ccccc6s5)c4C3)nc2C(=O)O)cnn1CC12CC3CC(C1)CC(C(=O)NCCCCNc1cccc4c1C(=O)N(C1CCC(=O)NC1=O)C4=O)(C3)C2 (stereo not shown) [degrader #34, 6-(8-(benzo[d]thiazol-2-ylcarbamoyl)-3,4-dihydroisoquinolin-2(1H)-yl)-3-(1-(((1r,3r)-3-((4-((2-(2,6-dioxopiperidin-3-yl)-1,3-dioxoisoindolin-4-yl)amino)butyl)carbamoyl)adamantan-1-yl)methyl)-5-methyl-1H-pyrazol-4-yl)picolinic acid] | 10 to 100 nM
7 | Cc1c(-c2ccc(N3CCc4cccc(C(=O)Nc5nc6ccccc6s5)c4C3)nc2C(=O)O)cnn1CC12CC3CC(C1)CC(C(=O)NCCCCCCNc1cccc4c1C(=O)N(C1CCC(=O)NC1=O)C4=O)(C3)C2 (stereo not shown) [degrader #35, 6-(8-(benzo[d]thiazol-2-ylcarbamoyl)-3,4-dihydroisoquinolin-2(1H)-yl)-3-(1-(((1r,3r)-3-((6-((2-(2,6-dioxopiperidin-3-yl)-1,3-dioxoisoindolin-4-yl)amino)hexyl)carbamoyl)adamantan-1-yl)methyl)-5-methyl-1H-pyrazol-4-yl)picolinic acid] | 10 to 100 nM
